# Patent EP2589385A1, “TRIPLE COMBINATION FOR THE TREATMENT OF CANCER” (Fundación Centro Nacional de Investigaciones Oncológicas, priority 2011, dated 2013)
# Key:
# [1] = tested on: pancreatic cancer cells (185 and A6L); assay: Invasion assay, modified Boyden chamber with Matrigel; format: cell-based, human; details: for effects of Nodal and Activin on cell invasiveness: cells pretreated with inhibitor at 20µM
# Description: Invasion assays were performed using modified Boyden chambers filled with Matrigel™ (BioCoat®, BD Biosciences, Heidelberg, Germany). […] 500µl of cell suspensions containing 5x10^4 pre-treated or untreated cells were added to the Matrigel™ coated inserts, and 750µl of serum-free medium with or without 300ng/ml recombinant human Nodal was added to the lower chamber. The assay chambers were incubated for 22h at 37°C. Invaded cells were fixed in 4% PFA and stained with DAPI. The ratios of cells in the lower chamber versus total seeded cells (in per cent) were calculated.
# [2] = tested on: human primary pancreatic cancer cells (A6L and 185); assay: Viability of adherent cells after inhibitor pretreatment; format: cell-based; details: pretreatment with inhibitor
# A6L and 185 cells = assay: Sphere formation assay (CSC self-renewal); format: cell-based, human; details: for sphere formation / sphere forming capacity: 10, 20, and 40µM, 7 days, vs control
# Description: (§1) Human pancreatic tumours were obtained with written informed consent from all patients. For in vitro studies, tissue fragments were minced, enzymatically digested with collagenase (Stem Cell Technologies, Vancouver, BC) for 90 min at 37°C (Mueller TM et al. Gastroenterology 2009 137(3):1102-13) and after centrifugation for 5 min at 1200 rpm the pellets were resuspended and cultured in RPMI, 10%FBS and 50units/ml pen/strep. Pancreatic cancer spheres were generated by placing the pancreatic cancer cell in suspension (20,000 cells/ml) in serum-free DMEM/F12 media, supplemented with B27 (1:50, Invitrogen), 20ng/ml bFGF and 50units/ml pen/strep. After 7 days of incubation, spheres were typically >75µm big with ~97% CD133high. For serial passaging, 7-day-old spheres were harvested using 40µm cell strainers, dissociated to single cells with trypsin, and then re-grown for 7 days. Cultures were kept no longer than 4 weeks after recovery from frozen stocks.
# phosphorylation of Smad2 = assay: Smad2 phosphorylation assay (western blot); format: cell-based, human; details: simultaneous treatment with inhibitor and rNodal or rActivin
# From the text: PVDF membranes containing electrophoretically separated proteins from human primary pancreatic cancer cells and spheres were probed with mouse antibodies against Nodal (ab556676; Abcam, Inc.), Smad2 (3103; Cell Signalling Technology, Inc.), GAPDH (ab8245-100; Abcam, Inc.), Smad4 (sc-7966; Santa Cruz Biotechnology, Inc.) and rabbit antibody against pSmad2 (3108; Cell Signalling Technology, Inc.), treated with peroxidase-conjugated goat anti-mouse or anti-rabbit Ig secondary antibody (Sigma), and then visualized by enhanced chemoluminescence (Amersham, Inc.). Human primary pancreatic cancer cells were serum-starved for 3h in RPMI (GIBCO). Following starvation, the cells were incubated for 30 min at 37°C with recombinant human Nodal or Activin proteins (300 ng/ml and 100 ng/ml, respectively; R&D) either alone or in the presence of the SB431542 (10 µM, Sigma). Anti-Smad2 and anti-phospho-Smad2 (Ser465/467) Antibodies (Cell Signalling Technology) were used, following the manufacturer's instructions.
# CD133+ population = assay: CD133 content by flow cytometry after in vitro treatment; format: cell-based, human
# Description: To identify pancreatic CSC, the following antibodies were used: anti-CD133/1-APC or PE; CD133/2-APC (all Miltenyi, Bergisch-Gladbach, Germany) was used for purity testing after MACSorting; EpCAM-FITC, CD44-PE or appropriate isotype-matched control antibodies (Beckton Dickinson, Heidelberg, Germany). Propidium iodide or 7-AAD was used for exclusion of dead cells (eBiosciences, San Diego, CA). Samples were analysed by flow cytometry using a FACS Canto II (BD) and data were analysed with FlowJo 9.2 software (Ashland, Oregon).
# CD133+ cells = assay: Cell cycle analysis with BrdU flow kit; format: cell-based, human
# L3.6pl cells = assay: In vivo treatment of established orthotopic pancreatic cancer cell line xenografts; design: species or system female NMRI nu/nu mice
# Description: (§2) Single-cell suspensions were either orthotopically implanted into the pancreas of female NMRI nu/nu mice (Janvier, Le Genest-Saint-Isle, France) or 2mm3 pieces of primary, in vivo expanded pancreatic cancer tissue were subcutaneously implanted, and mice were randomized to the respective treatment groups. Size and weight of the pancreatic tumours were monitored. Gemcitabine was administered twice a week (125 mg/kg i.p.). SB431542 was used at 25 mg/kg and CUR199691 at 100 mg/kg, both by oral gavages twice daily for three weeks.
# Mice were analysed with a 3-Tesla MRI system (Magnetom Tim Trio, Siemens, Erlangen, Germany) using a dedicated small animal coil and T2-weighted scanning.
# [3] = tested on: cells isolated from harvested tumours; assay: Sphere formation capacity of cells isolated from treated tumours on day 100; format: cell-based, human; details: cells from tumours harvested on day 100 (Fig. 7G, left panel)
# Description: as §1
# [4] = tested on: xenotransplanted human pancreatic cancer; details: in vivo therapy with gemcitabine; cited from earlier work
# [5] = tested on: primary human pancreatic cancer tissue xenografts; assay: In vivo treatment of primary human pancreatic cancer tissue xenografts; design: species or system female NMRI nu/nu mice
# Description: as §2
# CD133+ CSC = details: treatment with gemcitabine; cited from earlier work
structure (smiles),measurement,setting,value
Cc1cccc(-c2nn3c(c2-c2ccnc4ccc(C(N)=O)cc24)CCC3)n1 [LY2157299],enhanced invasiveness of CSC treated with rTGF-β,[1]; Alk5 inhibitor with rTGF-β,abrogated the enhanced invasiveness of CSC treated with rTGF-β
same,viability of adherent cells,[2],did not affect the viability of adherent cells
same,sphere formation / sphere forming capacity,A6L and 185 cells,did not display any effects on sphere forming capacity
same,sphere forming capacity,A6L and 185 cells; summary statement of Example 8 (Fig. 4A),neither the Alk5 inhibitor LY2157299 nor the TGF-β receptor II neutralizing antibodies resulted in significant changes of sphere forming capacity
NC(=O)c1ccc(-c2nc(-c3ccc4c(c3)OCO4)c(-c3ccccn3)[nH]2)cc1 [SB431542],effects of Nodal and Activin on cell invasiveness,[1],significantly attenuated the effects of Nodal and Activin on cell invasiveness
same,cell invasion of sphere-derived cells,[1]; conditioned medium from PSC cells in the lower compartment (Fig. 17B),Cell invasion was abrogated
same,viability of adherent cells,[2],did not affect the viability of adherent cells
same,sphere formation / sphere forming capacity,A6L and 185 cells,"dose-dependently (10, 20, and 40µM) blocked sphere formation as compared to control"
same,reversal of rNodal/rActivin-enhanced phosphorylation of Smad2,phosphorylation of Smad2,almost reversed this enhanced phosphorylation of Smad2
same,time until the CD133+ population replenished,CD133+ population; after four days of treatment with SB431542 alone,≤ 48 h
same,CD133 content / CD133+ population,CD133+ population; four days of treatment,marked decrease in CD133 content
same,percentage of CD133+ cells in S phase,CD133+ cells,did not affect the percentage of CD133+ cells in S phase
same,percentage of apoptotic CD133+ cells,CD133+ cells; result in words,nor did it increase the percentage of apoptotic CD133+ cells
Cc1cccc(-c2[nH]c(C(C)(C)C)nc2-c2ccc3c(c2)OCO3)n1 [SB505124],effects of Nodal and Activin on cell invasiveness,[1],significantly attenuated the effects of Nodal and Activin on cell invasiveness
"Nc1ccn([C@@H]2O[C@H](CO)[C@@H](O)C2(F)F)c(=O)n1 [gemcitabine, 4-amino-l-[3,3-difluoro-4-hydroxy-5-(hydroxymethyl)tetrahydrofuran-2-yl]-1 H-pyrimidin-2-one]",survival / long-term survival,L3.6pl cells; follow-up until day 100 (Fig. 7C),significantly prolonged survival
same,tumour take rate,L3.6pl cells; orthotopic cell line xenografts,100%
same,median survival,"L3.6pl cells; orthotopic cell line xenografts, treatment started one week after injection, control 32 days",54 days
same,sphere forming capacity,[3],strong sphere forming capacity
same,CD133+ cells in the residual tumour tissue,[4],significant enrichment of CD133+ cells in the residual tumour tissue
same,histological differentiation of remaining tumours,[5]; day 100,poor differentiation
same,tumour growth after gemcitabine withdrawal,[5]; long-term follow-up,reaccelerated in growth
same,effect on CD133+ CSC,CD133+ CSC,no detectable effect
